Data as given in patent US11617804B2, “Hyaluronic acid-based nanoparticles as biosensors for imaging-guided surgery and drug delivery vehicles and methods associated therewith” (Wake Forest University, priority 2014, dated 2023).

How the values were obtained:
[1] = system: MDA-MB-231 tumors; test: In vivo testing, MDA-MB-231-iRFP xenograft: imaging, image-guided tumor removal, relative biodistribution; parameters: species or system female nude mice; conditions: I.V. injection of 10 nmol ICG (free or fHNP), 24 hours
Protocol: Twelve to fourteen week old female nude mice (Jackson Labs) were injected subcutaneously with 2×10^6) MDA-MB-231 cells in 50/50 media/matrigel. MDA-MB-231 cells were transfected with NIR fluorescent protein (iRFP). When the tumors reached 500-1000 mm^3, 10 nmol ICG or fHNP (10 wt % PBA was the hydrophobic ligand in this case) was injected into a tail vein. After 24 hours the mice were euthanized and imaged whole using a LI-COR Pearl Impulse system, which has a “700 nm” channel that can detect iRFP-labeled cell and an “800 nm” channel that can detect ICG or Cy7.5. Mice then underwent image-guided tumor removal with the fluorescence image-guided surgical system method. First, skin was removed to expose the breast tumor xenograft. […] Mice were then re-imaged on the LI-COR system to compare area identified as tumor by the fluorescence image-guided surgical system with iRFP labeled tumors. This was followed by necropsy, further image acquisition for the overall estimation of relative ICG biodistribution, and preparation of tissues for histology.

[2] = system: ectopic 4T1 breast tumor; test: ICG detection in tumor with the fluorescence image-guided surgical system; type: in vivo, mouse; conditions: 0.357 mg/kg ICG via tail vein, 24 hours, laser excitation directed at the tumor
Protocol: In this experiment, 0.357 mg/kg ICG was systemically administered via a tail vein. After 24 hours, the mouse was euthanized and tumor fluorescence enhancement was assessed by using the fluorescence image-guided surgical system method. When the laser excitation source of fluorescence image-guided surgical system method is directed off the tumor (FIG. 9A,B), no fluorescence enhancement of the tumor is seen. […] This example uses a breast tumor model.

With `CC1(C)C(/C=C/C=C/C=C/C=C2\N(CCCCS(=O)(=O)O)c3ccc4ccccc4c3C2(C)C)=[N+](CCCCS(=O)(=O)[O-])c2ccc3ccccc3c21` [ICG, Indocyanine green] the Tumor signal enhancement [1] was “tumor signal enhancement” and the Tumor fluorescence enhancement [2] was “strong fluorescence signal”.
